From the METLIN SMRT retention time set (Domingo-Almenara et al. 2019)

Assay: gradient 5% acetonitrile 3 min, to 50% in 2 min, to 85% in 15 min, held 3 min, 100 µL/min
Conditions: column: Zorbax Extend-C18 2.1 x 50 mm; eluents: water / acetonitrile, 0.1% formic acid
Method in brief: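 A Zorbax Extend-C18 column (2.1 × 50 mm, 1.8 μm) run at 100 μL/min with water and acetonitrile, both containing 0.1% formic acid, separated mixtures of ~100 pure standards. The HPLC was coupled to a quadrupole time-of-flight mass spectrometer operated in positive and negative ionization mode, with dead and dwell volumes of 40 μL and 900 μL. Each retention time was taken from a computationally picked adduct peak that was then manually inspected.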

Row | SMILES | RP-LC retention time
1 | CCOc1ccc(CNC(=O)CN2CC=C(c3cnn(-c4ccccc4)c3)CC2)cc1OCC | 746 s
2 | CCn1nnc2cc(-c3noc(CN4C(=O)COc5ccccc54)n3)ccc21 | 845 s
3 | COC(=O)c1cccc(Nc2c(-c3ccc(SC)cc3)nc3cnccn23)c1 | 887 s
4 | O=C(Nc1cnc(-c2cccc(Cl)c2)nc1)c1cccs1 | 1070 s
5 | O=C(NCC1CCCO1)c1cn(-c2cc(N3CCSCC3)ncn2)cn1 (stereo unspecified) | 717 s
6 | Cc1nc(NCCC2=CCCCC2)nc(N2CCOCC2)c1[N+](=O)[O-] | 965 s
7 | CN1CCc2nnc(C3CCN(C(=O)Nc4cc(Cl)cc(Cl)c4)C3)n2CC1 (stereo unspecified) | 623 s
8 | COc1ccc(-c2nnc(COc3ccc(NC(=O)c4ccc(Br)o4)cc3)o2)cc1 | 934 s
9 | O=C(Nc1cc(-c2cccs2)no1)c1ccc(F)cc1 | 948 s
10 | CCn1ccc(NC(=O)NC(C)(C)C)n1 | 705 s
11 | Cc1cnc(CCC2CCCN2C(=O)CC(F)(F)F)n1C(C)C (stereo unspecified) | 600 s
12 | CC1(c2ccccc2)NN=C2Oc3ccccc3N21 (stereo unspecified) | 812 s
13 | COc1ccc(-c2cn3cccnc3n2)cc1NS(=O)(=O)c1ccc(Br)cc1 | 721 s
14 | CCc1cc(=O)n(CC(=O)NCCC2=CCCCC2)c(N)n1 | 642 s
15 | CCn1nccc1C(=O)N1CCC[C@H]1c1nc(-c2ccccc2)n[nH]1 | 627 s
16 | Nc1nnc(SCC(=O)Nc2nc(-c3ccccc3)cs2)s1 | 751 s
17 | COc1cc(NC(=O)N2CCc3cn(C)c4cccc(c34)C2)cc(OC)c1OC | 801 s
18 | Cc1cc(-n2nnc(C(=O)O)c2-c2ccncc2)ccc1F | 654 s
19 | COc1cc(NC(=O)CCl)ccc(=O)c1 | 631 s
20 | Cc1cc(F)ccc1NC(=O)C1CCCN1S(=O)(=O)c1cc2c(cc1Cl)NC(=O)CO2 (stereo unspecified) | 745 s

Row | SMILES | RP-LC retention time
21 | Cc1ccc(C)c(NC(=O)N2CC(c3nc(C)no3)C3(CCOCC3)C2)c1 (stereo unspecified) | 693 s
22 | Cc1cc(C(=O)NCC2CCN(C(=O)Nc3ccc(F)cc3)CC2)c(C)o1 | 750 s
23 | Cc1cccc(N2CCN(Cc3nc(-c4ccc(N5CCCC(C)C5)nc4)no3)CC2)c1 (stereo unspecified) | 1100 s
24 | O=C(Nc1ccc(C(=O)NCCCN2CCN(C3CCCCC3)CC2)cc1)C1=CSCCO1 | 579 s
25 | CCSc1nnc(-c2nn(C)c3c2CN(C(=O)c2cc(C)cc(C)c2)CC3)n1C | 811 s
26 | Cc1c(Cl)cccc1S(=O)(=O)N1CCC(CN2CCCCCC2)CC1 | 733 s
27 | O=C(Cn1cc(-c2nc(-c3cccs3)no2)ccc1=O)c1ccc2c(c1)OCO2 | 850 s
28 | O=C(c1cccnc1)N1CCCN(c2nnc3ccc(Cl)cn23)CC1 | 559 s
29 | O=C(c1ccnc(-c2cccs2)c1)N1CCN(c2ncccn2)CC1 | 749 s
30 | CCCN(C)C[C@@H]1CC(F)(F)CN1C1CCN(S(=O)(=O)c2ccccc2F)CC1 | 712 s
31 | Cc1ccc(NS(=O)(=O)c2cc(-c3nc(C)cs3)sc2C)c(C)c1 | 1090 s
32 | CCN(CC)CCCNC(=O)c1nnc(-c2ccc(S(=O)(=O)N3CCC(C)CC3)cc2)o1 | 696 s
33 | COCCN1C(=O)CCc2cc(NS(=O)(=O)c3ccc(C)c(F)c3)ccc21 | 802 s
34 | CCCS(=O)(=O)c1nc2ccc(NS(=O)(=O)c3ccc(F)c(Cl)c3)cc2s1 | 1020 s
35 | CCc1nnc(-c2cc(C)n(CC(=O)NC(C)c3ccccc3)c2C)o1 (stereo unspecified) | 805 s
36 | CN(C)S(=O)(=O)c1ccc2c(c1)N(CC(=O)NCC1COCCO1)C(=O)C1CCCCN21 (stereo unspecified) | 696 s
37 | CCC1CCCCN1C(=O)c1cnc2nc(C)ccc2c1Nc1cccc(C)c1C (stereo unspecified) | 720 s
38 | COc1ccc(NC(=O)N2CCC(c3nc4cccnc4n3C)C2)cc1 (stereo unspecified) | 617 s
39 | Cc1cc(=O)n(CC(=O)Nc2ccc3c(c2)OCCO3)c(N2CCOCC2)n1 | 634 s
40 | O=C1C(c2cccs2)N(Cc2ccco2)C(=O)CN1c1ccccc1 (stereo unspecified) | 734 s

Row | SMILES | RP-LC retention time
41 | CCn1cnc2ccc(-c3noc(-c4cccc(F)c4)n3)cc21 | 769 s
42 | CCn1cc(-c2nc(C)c(C(=O)NC3CCCCC3)s2)c2cccnc21 | 988 s
43 | CN(C)C(=O)c1cc2c(s1)CCC(C(=O)NCCc1ccncc1)C2 (stereo unspecified) | 563 s
44 | CCNc1cc(N2CCCC(CCC(=O)NCc3ccccc3C)C2)ncn1 (stereo unspecified) | 672 s
45 | CCOC(=O)c1[nH]c(C)c(CCC(=O)Nc2ccc3c(c2)OCCO3)c1C | 805 s
46 | CC(C)NC(=O)c1cccnc1N1CCSCC1 | 662 s
47 | Cc1ccc2[nH]cc(CCNC(=O)C3CCCN(C(=O)c4[nH]c(C)cc4C)C3)c2c1 (stereo unspecified) | 832 s
48 | CCS(=O)(=O)N1CCCc2cc(C(=O)NCC3CCCO3)ccc21 (stereo unspecified) | 708 s
49 | Cc1ccc(N2CCC(NC(=O)Nc3cccc(C)c3C)C2=O)cc1C (stereo unspecified) | 906 s
50 | Cn1c(=O)n(C)c2cc(N3CCCCC3)c(NC(=O)c3ccco3)cc21 | 872 s
51 | Cc1cc(CN2CC(F)(F)C[C@H]2c2nnc(-c3ccccc3)o2)n(C)n1 | 806 s
52 | N#C/C(=C\c1ccc2ccccc2c1)C(=O)c1ccccc1 | 1090 s
53 | O=C(C1CCC1)N1[C@H]2CC[C@@H]1c1cnc(-c3ccc(F)cc3)nc1C2 | 955 s
54 | Cc1cc(C2CCCN2C(=O)Nc2ccc(F)c(Cl)c2)no1 (stereo unspecified) | 808 s
55 | CS(=O)(=O)N1CCC(CNC(=O)C(=O)Nc2cc(Cl)ccc2C#N)CC1 | 743 s
56 | COc1ccc(OC)c(NC(=O)C2CCCN(c3nnc4ccccn34)C2)c1 (stereo unspecified) | 667 s
57 | Cc1ccc(C)c(N2CCN(C(=O)C3CCN(S(=O)(=O)c4cccc5nsnc45)CC3)CC2)c1 | 1070 s
58 | COc1ccc(Cc2nnc(C3CCN(C(=O)c4ccc(=O)[nH]c4)CC3)s2)cc1 | 612 s

Continued, values first:

Row | RP-LC retention time | SMILES
59 | 887 s | O=C(NCCOC(=O)c1ccco1)C(=O)Nc1nc(-c2ccccc2)cs1
60 | 1010 s | Cc1cccc(-c2cc3n(n2)CCCN(C(=O)COc2ccc(Cl)cc2)C3)c1
61 | 1090 s | CC(Oc1cccc2ccccc12)c1nc2c3ccccc3ncn2n1 (stereo unspecified)
62 | 893 s | CCc1ccc(NC(=O)CCc2c(C)n(C)c3nc(-c4ccccc4)nn3c2=O)cc1
63 | 610 s | NC1(C(=O)N[C@@H](CCO)c2ccc(Cl)cc2)CCN(c2ncnc3[nH]ccc23)CC1
64 | 749 s | CCOC(=O)c1nc(NCc2ccc(OC)cc2)c2ccccc2n1
65 | 697 s | O=C(O)c1ccc(Nc2c(-c3ccccc3)nc3cnccn23)cc1
66 | 866 s | CCc1ccc(N2C(=O)CN(Cc3ccc(OC)cc3)[C@H]3CS(=O)(=O)C[C@H]32)cc1
67 | 943 s | Cc1ccccc1NC(=O)c1cn(CC2CCCO2)cc2c(=O)n(-c3ccccc3)nc1-2 (stereo unspecified)
68 | 800 s | COc1ccc2[nH]cc(CCNC(=O)c3ccc(NC(=O)C4=CSCCO4)cc3)c2c1
69 | 666 s | COCCNC(=O)c1ccc2c(c1)nc(C)n2-c1ccc(Br)cc1
70 | 1080 s | O=C(NCc1ccco1)c1csc(N2CCN(c3cccc(Cl)c3)CC2)n1
71 | 727 s | O=C(NCC1CC(=O)N(Cc2ccccc2)C1)c1cccc(Cl)c1 (stereo unspecified)
72 | 759 s | COC(=O)c1ncn2c1C(=O)N(Cc1cccc(C)c1)C(C)(C(=O)NCc1ccccc1)C2 (stereo unspecified)
73 | 667 s | CCc1ccc(CCN2C(=O)c3ccccc3C2=O)nc1
74 | 746 s | Cc1ccc(CNC(=O)C2(C)CN(S(C)(=O)=O)CC(=O)N2c2ccc(F)cc2)cc1 (stereo unspecified)
75 | 893 s | Cc1ccc(N2CCC(NC(=O)Cc3ccccc3C)C2=O)cc1C (stereo unspecified)

Row | RP-LC retention time | SMILES
76 | 699 s | O=C(NCc1ccco1)C1CCN(C(=O)c2ncn3c2COC(c2ccccc2)C3)CC1 (stereo unspecified)
77 | 721 s | CC1=C(c2ccccc2)S(=O)(=O)N=C1N1CCCN(C(=O)Cc2ccsc2)CC1
78 | 697 s | CCn1c(-c2ccccc2)cc(C(=O)N(C)C)c1C
79 | 936 s | O=C(CN1CCc2ccccc2C1C(=O)N1CCCCC1)NCc1ccc(F)c(Cl)c1 (stereo unspecified)
80 | 743 s | O=C(NCc1csc(-c2cccs2)n1)C1CCN(C(=O)c2ccccc2F)CC1
81 | 708 s | CC(=O)N1CCc2sc(C(=O)NC(C)c3ccccc3)cc2C1 (stereo unspecified)
82 | 968 s | CC1(C)C(=O)N(CC(=O)Nc2cccc(Br)c2)c2ccccc21
83 | 1060 s | COc1cccc(Cn2nc(-c3nc(-c4ccc(F)cc4)no3)ccc2=O)c1
84 | 948 s | CS(=O)(=O)Nc1ccc(C2(C(=O)NCc3cccc(Cl)c3)CCCCC2)cc1
85 | 1090 s | COc1ccc2nc(-c3ccc(Cl)cc3)cc(C(=O)O)c2c1
86 | 696 s | CC(C)NC(=O)NCC1Cn2cccc2C(=O)N1Cc1ccccc1 (stereo unspecified)
87 | 803 s | CCCN1C(=O)c2cc(C(=O)N3CCCCCC3)nn2CC1(C)C(=O)NC1CCCC1 (stereo unspecified)
88 | 841 s | Cc1cc(NC(=O)C2CCC2)nn1Cc1ccccc1
89 | 832 s | CN1C(=O)c2cc(C(=O)NCc3ccc(Cl)cc3)nn2CC1(C)C(=O)NCc1ccccc1 (stereo unspecified)
90 | 784 s | CC1(C(=O)NCc2ccccc2)CN(S(=O)(=O)c2ccccc2)CC(=O)N1C1CC1 (stereo unspecified)
91 | 849 s | CCOc1ccccc1N1C=C(C(=O)OC)S(=O)(=O)c2ccccc21
